Data taken from patent US9005962B2, “Regionalised endoderm cells and uses thereof” (The University Court of the University of Edinburgh, priority 2007, dated 2015).

B1: Bmp4: bone morphogenetic protein, 10 ng/ml (protein, UniProt P12644 293-408, looked up)
Bone morphogenetic protein 4: SPKHHSQRARKKNKNCRRHSLYVDFSDVGWNDWIVAPPGYQAFYCHGDCPFPLADHLNSTNHAIVQTLVNSVNSSIPKACCVPTELSAISMLYLDEYDKVVLKNYQEMVVEGCGCR
B2: activin: secreted TGFβ ligand, activin A (R&D), 20 ng/ml (protein, UniProt P08476 311-426, looked up)
Inhibin beta A chain: GLECDGKVNICCKKQFFVSFKDIGWNDWIIAPSGYHANYCEGECPSHIAGTSGSSLSFHSTVINHYRMRGHSPFANLKSCCVPTKLRPMSMLYYDDGQNIIKKDIQNMIVEECGCS
modifications: Inhibin beta A chain

How the values were obtained:
Hex^RS ES cells [1] = test: ADE (H+C+) induction, two-step suspension (embryoid body) differentiation with serum day 0-2, flow cytometry for RS and Cxcr4; assay type: cell-based, mouse; settings: for induction of the RS positive population: added either at day 0 or day 3 (Table 2); for CXCR4 induction: added either at day 0 or day 3, data not shown
Description: ADE was induced under serum-containing conditions using a 2-step protocol. ES cells were seeded onto non-coated 10 cm petri dishes (sterilin) at a density of 5×10^3 cells/ml in Glasgow minimum essential medium (G-MEM; GIBCO-BRL) supplemented with 10% fetal calf serum (FCS), 0.1 mM nonessential amino acids (GIBCO-BRL), 1 mM sodium pyruvate, 2 mM glutamine and 0.1 mM 2-mercaptoethanol (2ME). Following 2 days of culture the resulting embryoid bodies (EBs) were harvested by centrifugation at 500 rpm for 1 min and replated on 10 cm non-coated petri dishes at the same density in N2B27 culture medium (StemCellSciences) supplemented with 20 ng/ml activin A (R&D). The media was replaced 2 days later and then every 3 days for the duration of the experiment. For some experiments 20 ng/ml EGF, 10 ng/ml Bmp4, 20 ng/ml activin A (R&D), 1×10^−5M all-trans retinoic acid (Sigma) and 3 μM CHIR99021 (a gift from StemCellSciences) were added to the culture at the indicated timepoints.
(§1) FITC-conjugated rat anti-CD184 (CXCR4), FITC-conjugated rat anti-CD31 and FITC conjugated rat anti-CD45 were purchased from BD Pharmingen. EBs generated under various different differentiation conditions were dissociated by treatment with cell dissociation buffer (PBS based) (GIBCO-BRL). Cells were washed in PBS supplemented with 10% FCS (FB) and resuspended at a maximum density of 5×10^6 cells/ml. For surface staining 200 μl of cells were plated in a V shape 96 well polystyrene plate (Sterilin) in PBS supplemented with 1% serum of the species in which the antibody was manufactured. The FITC-conjugated antibody or a FITC-conjugated isotype control was added at a 1:100 dilution. Cells were incubated in the dark for 20 mins, washed 3 times with FB and resuspended in FB supplemented with Topro3-iodide (Invitrogen) to exclude dead cell from the analysis. Cells were analysed using a FACS Calibur (BD Biosciences) or sorted using a MoFlo MLS flow cytometer (DakoCytomation).
Mouse ES cells were cultured according to Li et al., (1995). ADE was induced under serum-containing conditions using a 2-step protocol. ES cells were seeded onto non-coated 10 cm petri dishes (Sterilin) at a density of 5×10^3 cells/ml in GMEM supplemented as described in Li et al., (1995) except in the absence of LIF. EBs were harvested after two days by centrifugation and replated in N2B27 medium (StemCellSciences) supplemented with 20 ng/ml activin A (R&D) and 20 ng/ml EGF (R&D). This media was replaced again two days later. 10 ng/ml BMP4, 20 ng/ml activin A (R&D) and 1×10^−5M all-trans retinoic acid (Sigma) were added where indicated.
(§2) FITC-conjugated rat anti-CD184 (Cxcr4), FITC-conjugated rat anti-CD31 and FITC conjugated rat anti-CD45 were purchased from BD Pharmingen. Cells were stained with Topro3-iodide (Invitrogen) to exclude dead cells from the analysis. Cells were analysed using a FACS Calibur (BD Biosciences) or sorted using a MoFlo MLS flow cytometer (DakoCytomation).

Hex^RS ES cells [2] = test: ADE (H+C+) induction, serum-free suspension (aggregation) culture, flow cytometry; assay type: cell-based; settings: for total number of surviving cells at the end of the 7 day differentiation: added during the first two days, serum-free, aggregation and monolayer (Table 7)
Description: For ADE induction under serum-free conditions in suspension culture, ES cells were seeded onto non-coated 10 cm Petri dishes at 5×10^3 cells/ml in N2B27 culture medium supplemented with 10 ng/ml Bmp4 and 20 ng/ml activin A. Following 2 days of culture the resulting EBs were harvested as above and replated on non-coated Petri dishes at the same density in SF03 culture medium (ref Tada 2005) supplemented with 20 ng/ml activin A and 20 ng/ml EGF. The media was replaced 2 days later and then every 3 days for the duration of the experiment. For some experiments 10 ng/ml Fgf4 (R&D), 10 ng/ml Bmp4, 20 ng/ml Activin A, 1×10^−5M all-trans retinoic acid, 100 ng/ml PD173074 (Sigma), 20 ng/ml EGF and 3 μM CHIR99021 were added to the culture at the indicated timepoints.
as §1, with “(DakoCytomation). […]” for “(DakoCytomation).”
FITC-conjugated rat anti-CD184 (Cxcr4), FITC-conjugated rat anti-CD31 and FITC conjugated rat anti-CD45 were purchased from BD Pharmingen. […] Cells were analysed using a FACS Calibur (BD Biosciences) or sorted using a MoFlo MLS flow cytometer (DakoCytomation).

Hex^RS ES cells [3] = test: ADE (H+C+) induction, serum-free adherent monolayer culture, flow cytometry, RT-PCR and immunostaining; assay type: cell-based; settings: monolayer culture
Description: For ADE induction under serum-free conditions in adherent monolayer culture, ES cells were seeded onto gelatin coated 3 cm 6 well dishes (Iwaki) at a density of 1×10^4 cells/ml in N2B27 medium (StemCellSciences) supplemented with 10 ng/ml Bmp4, 20 ng/ml activin A and 10 ng/ml Fgf4. Following 2 days of culture the media was replaced with SF03 culture medium (Tada 2005) supplemented with 20 ng/ml activin A, 10 ng/ml Fgf4 and 20 ng/ml EGF. The media was replaced 2 days later and then every 3 days for the duration of the experiment. For some experiments 1×10^−5M all-trans retinoic acid, 100 ng/ml PD173074 and 3 μM CHIR99021 were added to the culture at the indicated timepoints.
as §1
Total RNA was prepared from a minimum of 1×10^4 cells from sorted cell fractions, EBs, monolayer differentiated cells or ES cells using Trizol reagent (Invitrogen). 1 μg of RNA was used as a template for cDNA synthesis using Superscript III (Invitrogen). Real-time RT-PCR was performed using a LightCycler 480 (Roche) and LightCycler 480 SYBR Green 1 Master (Roche). The following cycling conditions were used: denaturation: 95° C. 5 sec, amplification: 95° C. 5 sec, 58° C. 10 sec, 72° C. 20 sec (45 cycles), 81° C. 1 sec, melt: 95° C. 1 sec, 65° C. 10 sec, 95° C. −ramp 5 C per sec continuous, cool: […] 10 sec. Standard curves were generated from plasmid. Samples were normalized to β-actin or TATA-box binding protein (TBP) expression levels.
Sorted cells were seeded onto gelatin coated 24 well dishes (Iwaki). Adherence of cells to the substrate was enhanced by centrifugation at 1200 rpm for 3 mins. Sorted cells, monolayer differentiated cells and ES cells were washed in PBS, fixed in 4% paraformaldehyde for 10 mins and permeabilised by washing in PBS supplemented with 0.1% Triton X (PBST). Cells were treated with a blocking reagent (3% serum of same species as secondary antibody, 1% BSA in PBST) for 15 min before incubation with the primary antibody at 4° C. overnight. The cells were washed with PBST and incubated with the appropriate fluorescence-tagged secondary antibody for 2 hr at room temperature. The cells were washed with PBST and DAPI added during the final wash. The following primary antibodies were used, all are anti-mouse: anti-Oct3/4, anti-HNF-3β (Foxa2), anti-HNF-4α (Santa Cruz), anti-Cer11 (R&D), anti-E-cadherin (Takara Bio Inc) anti-alpha fetoprotein (NeoMarkers), anti-albumin (Bethyl laboratories inc). Anti-Pdx1 was a gift from P. Serup. […]
as §2

| Molecule | induction of the H+C+ cell population (Hex^RS ES cells [1]; addition at day 0-2, in the presence of serum) | total number of surviving cells at the end of the 7 day differentiation (Hex^RS ES cells [2]) | total number of H+C+ cells produced (Hex^RS ES cells [2]; serum-free differentiation (Table 7)) | induction of the RS positive population (Hex^RS ES cells [1]) | CXCR4 induction (Hex^RS ES cells [1]) | H+C+ percentage (Hex^RS ES cells [3]) | cells RS positive (Hex^RS ES cells [1]; day 7, serum containing media 48 hr, then serum free media supplemented with activin 5 days) |
| --- | --- | --- | --- | --- | --- | --- | --- |
| Cc1c[nH]c(-c2cnc(NCCNc3ccc(C#N)cn3)nc2-c2ccc(Cl)cc2Cl)n1 [CHIR99021] | completely blocked | significantly increased | no or only very minor effects |  |  |  |  |
| CC1=C(/C=C/C(C)=C/C=C/C(C)=C/C(=O)O)C(C)(C)CCC1 [retinoic acid, all-trans retinoic acid, reference compound] |  |  |  | completely blocked | without effecting |  |  |
| B1 |  | significantly increased |  | completely blocked | without effecting | increased |  |
| B2 |  |  |  |  |  |  | 6.8-8.6% |
